From patent publication US20060166900A1, “Salt of morphine-6-glucuronide” (CeNeS Limited, priority 2002, published 2006)

Key:
Format in all cases: physicochemical
[1] = Stability of M6G salts at room temperature over 6 years, HPLC
[2] = Visual appearance on storage (Example 3)
How it was run: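 Aliquots (900 mg) kept at 2-8 °C beforehand were stored in argon-flushed brown opaque HDPE bottles at 25 °C/60% RH, 40 °C/75% RH and 60 °C. Visual appearance was assessed at set time points.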

[3] = Water content by Karl Fisher analysis on storage (Example 3)
How it was run: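 900 mg aliquots were held in argon-flushed brown opaque HDPE bottles at 25 °C/60% RH, 40 °C/75% RH and 60 °C. At each time point, water content (% w/w) was determined in duplicate on about 100 mg of equilibrated material by Karl Fischer titration.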

[4] = Colour of solution by visible spectrophotometry on storage (Example 3); settings: 5% w/v solution in water
How it was run: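 5% w/v aqueous solution, absorbance at 420 nm in a 1 cm silica cell. Samples were stored in argon-flushed brown opaque HDPE bottles at 25° C./60% RH, 40° C./75% RH and 60° C.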

[5] = Stability indicating HPLC assay and related substances on storage (Example 3)
[6] = Storage stability of M6G base (general statement)

Structure (SMILES): CN1CC[C@]23c4c5ccc(O)c4O[C@H]2[C@@H](O[C@@H]2O[C@H](C(=O)O)[C@@H](O)[C@H](O)[C@H]2O)C=C[C@H]3[C@H]1C5 [Morphine-6-glucuronide base, morphine-6-β-D-glucuronide]
- HN-33177 ([1]; 0 years): 0.7%
- Unknown related substances (sum area %) ([1]; 0 years): <0.1 area %
- Assay M6G corr. ([1]; 0 years, content calculated as M6G derivative): 98.2%
- Assay M6G corr. ([1]; 5 years at ambient temperature): 81.2%
- HN-33177 ([1]; 5 years at ambient temperature): 0.8%
- Morphine ([1]; 5 years at ambient temperature): 0.3%
- Unknown related substances (sum area %) ([1]; 5 years at ambient temperature): 11.8 area %
- Appearance ([2]; 1 month, 25° C./60% RH): White crystalline powder
- Appearance ([2]; 1 month, 40° C./75% RH): Pale yellow crystalline powder
- Appearance ([2]; 1 month, 60° C.): Yellow crystalline powder
- Appearance ([2]; 3 months, 25° C./60% RH): White crystalline powder
- Appearance ([2]; 3 months, 25° C./60% RH, listed as base): white crystalline solids
- Appearance ([2]; 3 months, 40° C./75% RH): Yellow crystalline powder
- Appearance ([2]; Initial): White crystalline powder
- Moisture ([3]; 1 month, 25° C./60% RH): 9.00 % w/w
- Moisture ([3]; 1 month, 40° C./75% RH): 9.68 % w/w
- Moisture ([3]; 1 month, 60° C.): 8.21 % w/w
- Moisture ([3]; 3 months, 25° C./60% RH): 9.53 % w/w
- Moisture ([3]; 3 months, 40° C./75% RH): 9.85 % w/w
- Moisture ([3]; Initial): 9.80 % w/w
- moisture content across storage conditions ([3]; regardless of storage condition): reasonably consistent
- Colour ([4]; 1 month, 25° C./60% RH): 0.040 Abs@420 nm
- Colour ([4]; 1 month, 40° C./75% RH): 0.182 Abs@420 nm
- Colour ([4]; 1 month, 60° C.): 0.541 Abs@420 nm
- Colour ([4]; 3 months, 25° C./60% RH): 0.132 Abs@420 nm
- Colour ([4]; 3 months, 40° C./75% RH): 0.680 Abs@420 nm
- Colour ([4]; Initial): 0.017 Abs@420 nm
- Known Related Substances HN33177 ([5]; 1 month, 25° C./60% RH): 0.88%
- Known Related Substances HN75083 ([5]; 1 month, 25° C./60% RH): 0.05%
- M6G Assay, Anhydrous basis ([5]; 1 month, 25° C./60% RH): 99.61 % w/w
- M6G Assay, As is basis ([5]; 1 month, 25° C./60% RH): 90.77 % w/w
- M6G Assay, Corrected for the salt form ([5]; 1 month, 25° C./60% RH): 99.61 % w/w
- Total Known ([5]; 1 month, 25° C./60% RH): 0.93%
- Total Related Substances ([5]; 1 month, 25° C./60% RH): 1.00%
- Total Unknown ([5]; 1 month, 25° C./60% RH): 0.07%
- Known Related Substances HN33177 ([5]; 1 month, 40° C./75% RH): 0.85%
- Known Related Substances HN67003 ([5]; 1 month, 40° C./75% RH): 0.05%
- Known Related Substances HN75083 ([5]; 1 month, 40° C./75% RH): 0.03%
- M6G Assay, Anhydrous basis ([5]; 1 month, 40° C./75% RH): 99.45 % w/w
- M6G Assay, As is basis ([5]; 1 month, 40° C./75% RH): 89.94 % w/w
- M6G Assay, Corrected for the salt form ([5]; 1 month, 40° C./75% RH): 99.45 % w/w
- Total Known ([5]; 1 month, 40° C./75% RH): 0.93%
- Total Related Substances ([5]; 1 month, 40° C./75% RH): 1.27%
- Total Unknown ([5]; 1 month, 40° C./75% RH): 0.34%
- Known Related Substances HN33177 ([5]; 1 month, 60° C.): 0.83%
- Known Related Substances HN67003 ([5]; 1 month, 60° C.): 0.19%
- Known Related Substances HN75083 ([5]; 1 month, 60° C.): 0.02%
- M6G Assay, Anhydrous basis ([5]; 1 month, 60° C.): 96.18 % w/w
- M6G Assay, As is basis ([5]; 1 month, 60° C.): 89.31 % w/w
- M6G Assay, Corrected for the salt form ([5]; 1 month, 60° C.): 96.18 % w/w
- Total Known ([5]; 1 month, 60° C.): 1.04%
- Total Related Substances ([5]; 1 month, 60° C.): 2.31%
- Total Unknown ([5]; 1 month, 60° C.): 1.27%
- stability based on % w/w assay ([5]; 3 month assay data): most stable
- Known Related Substances HN33177 ([5]; 3 months, 25° C./60% RH): 0.86%
- Known Related Substances HN67003 ([5]; 3 months, 25° C./60% RH): 0.04%
- M6G Assay, Anhydrous basis ([5]; 3 months, 25° C./60% RH): 100.27 % w/w
- M6G Assay, As is basis ([5]; 3 months, 25° C./60% RH): 91.84 % w/w
- M6G Assay, Corrected for the salt form ([5]; 3 months, 25° C./60% RH): 100.27 % w/w
- Total Known ([5]; 3 months, 25° C./60% RH): 0.90%
- Total Related Substances ([5]; 3 months, 25° C./60% RH): 1.42%
- Total Unknown ([5]; 3 months, 25° C./60% RH): 0.52%
- Known Related Substances HN33177 ([5]; 3 months, 40° C./75% RH): 0.95%
- Known Related Substances HN67003 ([5]; 3 months, 40° C./75% RH): 0.23%
- Known Related Substances HN75076 ([5]; 3 months, 40° C./75% RH): 0.01%
- Known Related Substances Morphine ([5]; 3 months, 40° C./75% RH): 0.07%
- M6G Assay, Anhydrous basis ([5]; 3 months, 40° C./75% RH): 97.15 % w/w
- M6G Assay, As is basis ([5]; 3 months, 40° C./75% RH): 88.67 % w/w
- M6G Assay, Corrected for the salt form ([5]; 3 months, 40° C./75% RH): 97.15 % w/w
- Total Known ([5]; 3 months, 40° C./75% RH): 1.26%
- Total Related Substances ([5]; 3 months, 40° C./75% RH): 4.34%
- Total Unknown ([5]; 3 months, 40° C./75% RH): 3.08%
- increase in the amount of degradation products as measured by HPLC ([5]; 3 months, 40° C./75% RH): approximately 3%
- stability assessment ([5]; 25° C./60% RH, three months): relatively stable
- stability assessment ([5]; 40° C./75% RH over 3 months (base also 60° C. over 1 month)): shows signs of degradation
- Known Related Substances HN33177 ([5]; Initial): 0.87%
- Known Related Substances HN67003 ([5]; Initial): 0.05%
- Known Related Substances HN75083 ([5]; Initial): 0.06%
- M6G Assay, Anhydrous basis ([5]; Initial): 99.79 % w/w
- M6G Assay, As is basis ([5]; Initial): 91.07 % w/w
- M6G Assay, Corrected for the salt form ([5]; Initial): 99.79 % w/w
- Total Known ([5]; Initial): 0.98%
- Total Related Substances ([5]; Initial): 0.98%
- Total Unknown ([5]; Initial): 0.00%
- stability on storage ([6]; stored at room temperature): does degrade
- stability on storage ([6]; stored at −20° C.): stable
